In ChEMBL document CHEMBL3044741, “Synthesis of novel biologically active methylene derivatives of sydnones” (Med Chem Res, 2013):
In brackets after ≈: the same amount, converted by molar mass.

Columns and labels:
Escherichia coli [1] = experiment: Antibacterial activity against Escherichia coli MTCC 443 at 250 ug/ml after 24 hrs by Kirby-Bauer method; assay type: functional; conditions: MTCC 443, 24 h, read-out: IZ
Staphylococcus aureus [2] = experiment: Antibacterial activity against Staphylococcus aureus MTCC 96 at 250 ug/ml after 24 hrs by Kirby-Bauer method; assay type: functional; conditions: MTCC 96, 24 h, read-out: IZ
Aspergillus niger [3] = experiment: Antifungal activity against Aspergillus niger MTCC 282; assay type: functional
Human alphaherpesvirus 3 [4] = experiment: Antiviral activity against thymidine kinase-deficient Varicella-zoster virus infected in HEL cells assessed as reduction in plaque formation; assay type: functional, organism-based; conditions: Human alphaherpesvirus 3, HEL
Cytomegalovirus [5] = experiment: Antiviral activity against Cytomegalovirus AD-169 infected in HEL cells assessed as reduction in plaque formation; assay type: functional, organism-based; conditions: Human betaherpesvirus 5, AD-169, HEL
Cytomegalovirus [6] = experiment: Antiviral activity against Cytomegalovirus Davis in HEL cells assessed as reduction in plaque formation; assay type: functional, organism-based; conditions: Human betaherpesvirus 5, Davis
Human alphaherpesvirus 3 [7] = experiment: Antiviral activity against Varicella-zoster virus Oka expressing thymidine kinase infected in HEL cells assessed as reduction in plaque formation; assay type: functional, organism-based; conditions: Human alphaherpesvirus 3, strain Oka vaccine
Staphylococcus aureus [8] = experiment: Antibacterial activity against Staphylococcus aureus MTCC 96 after 24 hrs by broth dilution method; assay type: functional; conditions: MTCC 96, 24 h
Aspergillus clavatus [9] = experiment: Antifungal activity against Aspergillus clavatus MTCC 1323 at 250 ug/ml after 74 hrs by Kirby-Bauer method; assay type: functional; conditions: MTCC 1323, 74 h, read-out: IZ
[10] = test system: Human immunodeficiency virus 2; experiment: Antiviral activity against HIV2 ROD infected in MT4 cells assessed as inhibition of virus-induced cytopathogenicity by MTT assay; assay type: functional, organism-based; conditions: Human immunodeficiency virus 2, ISOLATE ROD
[11] = Selectivity index, ratio of CC50 for human MT4 cells to IC50 for HIV2 ROD; assay type: functional
Candida albicans [12] = experiment: Antifungal activity against Candida albicans MTCC 227; assay type: functional
Streptococcus pyogenes [13] = experiment: Antibacterial activity against Streptococcus pyogenes MTCC 442 at 250 ug/ml after 24 hrs by Kirby-Bauer method; assay type: functional; conditions: MTCC 442, 24 h, read-out: IZ
[14] = Cytotoxicity against human HEL cells; assay type: cell-based
[15] = test system: Human immunodeficiency virus 1; experiment: Antiviral activity against HIV1 3B infected in MT4 cells assessed as inhibition of virus-induced cytopathogenicity by MTT assay; assay type: functional, organism-based; conditions: Human immunodeficiency virus 1, 3B
Candida albicans [16] = experiment: Antifungal activity against Candida albicans MTCC 227 at 250 ug/ml after 74 hrs by Kirby-Bauer method; assay type: functional; conditions: MTCC 227, 74 h, read-out: IZ
[17] = Selectivity index, ratio of CC50 for human MT4 cells to IC50 for HIV1 3B; assay type: functional
[18] = Cytotoxicity against human MT4 cells by MTT assay; assay type: cell-based
Escherichia coli [19] = experiment: Antibacterial activity against Escherichia coli MTCC 443 after 24 hrs by broth dilution method; assay type: functional; conditions: MTCC 443, 24 h
Pseudomonas aeruginosa [20] = experiment: Antibacterial activity against Pseudomonas aeruginosa MTCC 424 after 24 hrs by broth dilution method; assay type: functional; conditions: MTCC 424, 24 h
[21] = Cytotoxicity against human HEL cells assessed as alteration in cell morphology; assay type: cell-based
Streptococcus pyogenes [22] = experiment: Antibacterial activity against Streptococcus pyogenes MTCC 442 after 24 hrs by broth dilution method; assay type: functional; conditions: MTCC 442, 24 h
Aspergillus niger [23] = experiment: Antifungal activity against Aspergillus niger MTCC 282 at 250 ug/ml after 74 hrs by Kirby-Bauer method; assay type: functional; conditions: MTCC 282, 74 h, read-out: IZ
Aspergillus clavatus [24] = experiment: Antifungal activity against Aspergillus clavatus MTCC 1323; assay type: functional
Pseudomonas aeruginosa [25] = experiment: Antibacterial activity against Pseudomonas aeruginosa MTCC 424 at 250 ug/ml after 24 hrs by Kirby-Bauer method; assay type: functional; conditions: MTCC 424, 24 h, read-out: IZ

Structure (SMILES): [O-]c1on[n+](-c2ccc(Cc3ccc(-[n+]4noc([O-])c4CN4CCNCC4)cc3)cc2)c1CN1CCNCC1
- zone of inhibition at 250 µg/mL (Escherichia coli [1]): 21 mm
- zone of inhibition at 250 µg/mL (Staphylococcus aureus [2]): 18 mm
- MIC (Aspergillus niger [3]): 250 µg/mL (≈ 469 µM)
- EC50 (Human alphaherpesvirus 3 [4]): > 4 µg/mL
- EC50 (Cytomegalovirus [5]): 11.7 µg/mL (≈ 22 µM)
- EC50 (Cytomegalovirus [6]): 20 µg/mL (≈ 37.6 µM)
- EC50 (Human alphaherpesvirus 3 [7]): > 4 µg/mL
- MIC (Staphylococcus aureus [8]): 200 µg/mL (≈ 376 µM)
- zone of inhibition at 250 µg/mL (Aspergillus clavatus [9]): 19 mm
- IC50 [10]: > 14 µg/mL
- Ratio CC50/IC50 [11]: <1
- MIC (Candida albicans [12]): 1000 µg/mL (≈ 1880 µM)
- zone of inhibition at 250 µg/mL (Streptococcus pyogenes [13]): 17 mm
- CC50 [14]: 20 µg/mL (≈ 37.6 µM)
- IC50 [15]: > 14 µg/mL
- zone of inhibition at 250 µg/mL (Candida albicans [16]): 21 mm
- Ratio CC50/IC50 [17]: <1
- CC50 [18]: 14 µg/mL (≈ 26.3 µM)
- MIC (Escherichia coli [19]): 62.5 µg/mL (≈ 117 µM)
- MIC (Pseudomonas aeruginosa [20]): 100 µg/mL (≈ 188 µM)
- MCC [21]: 100 µg/mL
- MIC (Streptococcus pyogenes [22]): 500 µg/mL (≈ 939 µM)
- zone of inhibition at 250 µg/mL (Aspergillus niger [23]): 23 mm
- MIC (Aspergillus clavatus [24]): 1000 µg/mL (≈ 1880 µM)
- zone of inhibition at 250 µg/mL (Pseudomonas aeruginosa [25]): 21 mm
